Assay results as given in article PMC11859928, “Design, Synthesis, and Antiproliferative Activity of Novel Indole/1,2,4-Triazole Hybrids as Tubulin Polymerization Inhibitors” (Pharmaceuticals, 2025).

What was measured:
Assay in all cases: NCI one-dose assay
HOP-92 = format: cell-based, human; conditions: Homo sapiens, HOP-92, HOP-92, Non-small cell lung cancer, read-out: Cell growth inhibition %
Method: (§1) The National Cancer Institute (NCI), Bethesda, USA, selected the final compounds 6a–j and 7a–j for in vitro anticancer screening. An initial in vitro single-dose anticancer experiment was performed with the entire NCI 60 cell lines derived from nine tumor subpanel cancer cell lines. The results for each compound were illustrated as a mean graph showing the percentage growth of treated cells compared to untreated control cells (see Supplementary Materials).
(§2) The NCI anticancer screening process has been thoroughly detailed. The Drug Evaluation Branch of the National Cancer Institute in Bethesda, […], USA, established the procedure and conducted the anticancer assay on 60 human tumor cell lines from nine neoplastic cancers.

786-0 = format: cell-based, human; conditions: Homo sapiens, 786-0, 786-0, Renal cancer, read-out: Cell growth inhibition %
Method: as §1, §2

UO-31 = format: cell-based, human; conditions: Homo sapiens, UO-31, UO-31, Renal cancer, read-out: Cell growth inhibition %
Method: as §1, §2

MDA-MB-231/ATCC = format: cell-based; conditions: Homo sapiens, Breast cancer, read-out: Cell growth inhibition %
Method: as §1, §2

T-47D = format: cell-based; conditions: Homo sapiens, T47D, Breast cancer, read-out: Cell growth inhibition %
Method: as §1, §2

M14 = format: cell-based; conditions: Homo sapiens, M14, Melanoma, read-out: Cell growth inhibition %
Method: as §1, §2

U251 = format: cell-based; conditions: Homo sapiens, U-251, U251, CNS cancer, read-out: Cell growth inhibition %
Method: as §1, §2

SW-620 = format: cell-based; conditions: Homo sapiens, SW-620, Colon cancer, read-out: Cell growth inhibition %
Method: as §1, §2

SF-268 = format: cell-based; conditions: Homo sapiens, SF-268, CNS cancer, read-out: Cell growth inhibition %
Method: as §1, §2

UACC-257 = format: cell-based; conditions: Homo sapiens, UACC-257, Melanoma, read-out: Cell growth inhibition %
Method: as §1, §2

SNB-19 = format: cell-based; conditions: Homo sapiens, SNB-19, CNS cancer, read-out: Cell growth inhibition %
Method: as §1, §2

MALME-3M = format: cell-based; conditions: Homo sapiens, Melanoma, read-out: Cell growth inhibition %
Method: as §1, §2

OVCAR-8 = format: cell-based; conditions: Homo sapiens, OVCAR-8, Ovarian cancer, read-out: Cell growth inhibition %
Method: as §1, §2

HL-60(TB) = format: cell-based; conditions: Homo sapiens, Leukemia, read-out: Cell growth inhibition %
Method: as §1, §2

HS 578 T = format: cell-based; conditions: Homo sapiens, Breast cancer, read-out: Cell growth inhibition %
Method: as §1, §2

HT29 = format: cell-based; conditions: Homo sapiens, HT-29, HT29, Colon cancer, read-out: Cell growth inhibition %
Method: as §1, §2

K-562 = format: cell-based; conditions: Homo sapiens, K562, K-562, Leukemia, read-out: Cell growth inhibition %
Method: as §1, §2

SR = format: cell-based; conditions: Homo sapiens, Leukemia, read-out: Cell growth inhibition %
Method: as §1, §2

NCI-H460 = format: cell-based; conditions: Homo sapiens, NCI-H460, Non-small cell lung cancer, read-out: Cell growth inhibition %
Method: as §1, §2

SF-539 = format: cell-based; conditions: Homo sapiens, SF-539, CNS cancer, read-out: Cell growth inhibition %
Method: as §1, §2

OVCAR-3 = format: cell-based; conditions: Homo sapiens, OVCAR-3, Ovarian cancer, read-out: Cell growth inhibition %
Method: as §1, §2

EKVX = format: cell-based; conditions: Homo sapiens, Non-small cell lung cancer, read-out: Cell growth inhibition %
Method: as §1, §2

SK-MEL-5 = format: cell-based; conditions: Homo sapiens, SK-MEL-5, Melanoma, read-out: Cell growth inhibition %
Method: as §1, §2

SN12C = format: cell-based; conditions: Homo sapiens, Renal cancer, read-out: Cell growth inhibition %
Method: as §1, §2

DU-145 = format: cell-based; conditions: Homo sapiens, DU-145, Prostate cancer, read-out: Cell growth inhibition %
Method: as §1, §2

SK-MEL-28 = format: cell-based; conditions: Homo sapiens, SK-MEL-28, Melanoma, read-out: Cell growth inhibition %
Method: as §1, §2

IGROV1 = format: cell-based; conditions: Homo sapiens, IGROV-1, IGROV1, Ovarian cancer, read-out: Cell growth inhibition %
Method: as §1, §2

NCI/ADR-RES = format: cell-based; conditions: Homo sapiens, Ovarian cancer, read-out: Cell growth inhibition %
Method: as §1, §2

OVCAR-4 = format: cell-based; conditions: Homo sapiens, OVCAR-4, Ovarian cancer, read-out: Cell growth inhibition %
Method: as §1, §2

SK-OV-3 = format: cell-based; conditions: Homo sapiens, SK-OV-3, Ovarian cancer, read-out: Cell growth inhibition %
Method: as §1, §2

HCC-2998 = format: cell-based; conditions: Homo sapiens, HCC-2998, Colon cancer, read-out: Cell growth inhibition %
Method: as §1, §2

OVCAR-5 = format: cell-based; conditions: Homo sapiens, OVCAR-5, Ovarian cancer, read-out: Cell growth inhibition %
Method: as §1, §2

A549/ATCC = format: cell-based; conditions: Homo sapiens, Non-small cell lung cancer, read-out: Cell growth inhibition %
Method: as §1, §2

NCI-H23 = format: cell-based; conditions: Homo sapiens, NCI-H23, Non-small cell lung cancer, read-out: Cell growth inhibition %
Method: as §1, §2

TK-10 = format: cell-based; conditions: Homo sapiens, TK-10, Renal cancer, read-out: Cell growth inhibition %
Method: as §1, §2

NCI-H522 = format: cell-based; conditions: Homo sapiens, NCI-H522, Non-small cell lung cancer, read-out: Cell growth inhibition %
Method: as §1, §2

SMILES	inhibition at 10 µM (HOP-92) [%]	inhibition at 10 µM (786-0) [%]	inhibition at 10 µM (UO-31) [%]	inhibition at 10 µM (MDA-MB-231/ATCC) [%]	inhibition at 10 µM (T-47D) [%]	inhibition at 10 µM (M14) [%]	inhibition at 10 µM (U251) [%]	inhibition at 10 µM (SW-620) [%]	inhibition at 10 µM (SF-268) [%]	inhibition at 10 µM (UACC-257) [%]	inhibition at 10 µM (SNB-19) [%]	inhibition at 10 µM (MALME-3M) [%]	inhibition at 10 µM (OVCAR-8) [%]	inhibition at 10 µM (HL-60(TB)) [%]	inhibition at 10 µM (HS 578 T) [%]	inhibition at 10 µM (HT29) [%]	inhibition at 10 µM (K-562) [%]	inhibition at 10 µM (SR) [%]	inhibition at 10 µM (NCI-H460) [%]	inhibition at 10 µM (SF-539) [%]	other results
C=CCn1c(SCC(=NO)c2ccc(OC)cc2)nnc1-c1c[nH]c2ccccc12 [Compound 7b, 2-((4-allyl-5-(1H-indol-3-yl)-4H-1,2,4-triazol-3-yl)thio)-1-(4-methoxyphenyl) Ethanone Oxime]	8.91	0.73	19.2	13.5	26.4	2.83	-5.26	-2.43	-0.98	-11.5	1.65	3.2	7.1	16.1	2.61	-5.85	13.6	3.76	5.34	4.37	inhibition at 10 µM (OVCAR-3): -9.23%; inhibition at 10 µM (EKVX): 7.49%; inhibition at 10 µM (SK-MEL-5): 10.5%; inhibition at 10 µM (SN12C): 8.24%; inhibition at 10 µM (DU-145): -5.85%; inhibition at 10 µM (SK-MEL-28): -3.89%; inhibition at 10 µM (IGROV1): 17.6%; inhibition at 10 µM (NCI/ADR-RES): -3.18%; inhibition at 10 µM (OVCAR-4): -1.81%; inhibition at 10 µM (SK-OV-3): 1.86%; inhibition at 10 µM (HCC-2998): -8.35%; inhibition at 10 µM (OVCAR-5): -4.1%; inhibition at 10 µM (A549/ATCC): -9.29%; inhibition at 10 µM (NCI-H23): 4.86%; inhibition at 10 µM (TK-10): -27.2%; inhibition at 10 µM (NCI-H522): 8.33%
C=CCn1c(SC/C(=N\O)c2ccccc2)nnc1-c1c[nH]c2ccccc12 [Compound 7a, (Z)-2-((4-Allyl-5-(1H-indol-3-yl)-4H-1,2,4-triazol-3-yl)thio)-1-phenylethanone Oxime]	5.05	4.91	20.9	3.9	8.67	-13.4	4.62	0.27	-7.26	-13.1	6.82	7.6	1.16	9.34	5.73	-3.61	3.29	-10.3	3.34	3.26	inhibition at 10 µM (OVCAR-3): -14.9%; inhibition at 10 µM (EKVX): 5.6%; inhibition at 10 µM (SK-MEL-5): 1.57%; inhibition at 10 µM (SN12C): 2.4%; inhibition at 10 µM (DU-145): -5.82%; inhibition at 10 µM (SK-MEL-28): -4.36%; inhibition at 10 µM (IGROV1): 7.6%; inhibition at 10 µM (NCI/ADR-RES): -6.66%; inhibition at 10 µM (OVCAR-4): -8.19%; inhibition at 10 µM (SK-OV-3): 2.21%; inhibition at 10 µM (HCC-2998): 0.84%; inhibition at 10 µM (OVCAR-5): -3.15%; inhibition at 10 µM (A549/ATCC): -6.67%; inhibition at 10 µM (NCI-H23): -1.28%; inhibition at 10 µM (TK-10): -12.2%; inhibition at 10 µM (NCI-H522): 4.48%
